Patent publication US6610699B2, “Use of L-carnitine and its alkanoyl derivatives in the preparation of medicaments with anticancer activity” (Sigma-Tau Industrie Farmaceutiche Riunite S.p.A., priority 1998, dated 2003)
Read-outs that look alike come from different tables or passages of the source.

Experiments:
[1] = system: female BALB/c mice; experiment: Taxol (i.p.)-induced neutropenia in the mouse, blood cell count
Protocol: In this model, the amount of circulating neutrophils was measured.
Acetyl L-carnitine inner salt (sterile ampoule), solubilised in water for injectable preparations, was used. Each ampoule of ALC is dissolved in 4 ml of water for injections (Solution O). Two ml of (O) are brought up to 25 ml with sterile PBS (Sigma), so as to have 10 mg/ml for subcutaneous administration (100 mg/kg/ 10 ml); 0.8 ml of (O) are brought to 50 ml with PBS in order to have 2 mg/ml for oral administration (100 mg/kg/50 ml).
(§1) At the time of use, the 12 mg/ml solution is diluted 1:4 with saline in phosphate buffer (PBS) (SIGMA,) and injected i.p. (30 mg/kg/10 ml).
(§2) The mice are anaesthetised with CO2; blood is taken from the retro-orbital plexus (0.5 ml blood/mouse) and placed in Eppendorf test tubes containing 10 μl of Vister heparin (5000 U/ml). The animals are sacrificed by cervical dislocation. Later, the bone marrow samples are taken.
(§3) The instrument is used according to the instructions provided in the operating manual. The blood (25 μl) is taken from the dilutor and brought to a volume of 10 ml with isotonic solution (PLTA Saline, Delcon) in a beaker (dil. 1:400) (Solution A). From Solution A, the dilutor takes 100 μl and brings them to 10 ml (dil. 1:100) in another beaker (Solution B). To Solution A are added 3 drops of lysing agent (Emosol, Delcon), the solution is mixed by hand and left to act for approximately 2 minutes so that the red blood cells are lysed and HGB (haemoglobin) released. Solution A containing the lysing agent is used for the WBC and haemoglobin (HGB) readings. Solution B is used for the RBC and platelet (PLT) readings.
Double readings are done on each sample, and between one sample and the next, the instrument is washed using isotonic solution,
(§4) Superfrost plus slides (25×75×1 mm) (Mensel-Glaser), ready for use, are adopted. The blood (8 μl) is deposited on the right-hand side of the slide; another slide, placed at a 45° angle, to the left of the blood, is drawn back until in comes into contact with the drop which spreads rapidly along the contact line between the two slides; the slide is moved forwards with a smooth, rapid movement so as to obtain a thin film of blood. The slide is left to dry in air, stained with Diff-Quick (DADE) dye, according to the attached instructions, and dried again in air.
(§5) The slides are immersed in Histolemon solution (Carlo Erba) for 2 sec.; a drop of synthetic mountant (Shandon) os deposited at the centre of the slide and a cover slide is placed over it covering the entire blood smear, taking care not to form bubbles between the two slides. The slides are dried and then the WBC count is performed, up to 100, with an optical microscope, after depositing a drop of cedar oil on the slide.
(§6) The quantity of […], assessed using the haemocytometer, is multiplied by the percentage value of the corresponding neutrophil granulocytes of the leukocyte formula. This parameter, divided by 100, expresses the value of neutrophils/mm^3 blood.
Data are expressed as means ±SE. Comparison between the neutrophil granulocyte values obtained for the different groups is done using ANOVA. Abnormal values are subjected to the Dixon test.

[2] = system: BALB/c mice inoculated with murine carcinoma of the breast (L-MM3); experiment: Taxol-induced neutropenia in mice with L-MM3 carcinoma of the breast, blood cell count
Protocol: In addition, in this tumour model, the amount of circulating neutrophils was measured.
Acetyl L-carnitine inner salt (sterile ampoule), solubilised in water for injectable preparations, was used. Each ampoule of ALC is dissolved in 4 ml of water for injections (Solution O). 0.8 ml of (O) are brought to 50 ml with sterile PBS (Sigma) in order to perform the oral administration (100 mg/kg/50 ml).
as §1
Animals: 120 female BALB/c mice weighing 18-20 g (Harlan)
Treatment schedule 1: the transplantable murine breast cancer cells (L-MM3) of Balb/c origin are grown at 37° C. in plastic flasks in a 5% CO2 humidified incubator in DMEM medium containing 5% heat-inactivated FCS, L-glutamine 2 mM, and gentamicin 80 μg/ml. At the time of inoculation, the cells are detached with trypsin-EDTA and re-suspended in the same medium without […].
Unanaesthetised female Balb/c mice received subcutaneous injections in the flank of 4×10^5 cells in 0.2 ml of DMEM.
Four days after inoculation of the tumour, the animals were treated with the molecules according to the following schedule, for the purposes of evaluating neutropenia:
ALC is administered then for 10 days; the animals are sacrificed after 6 hours.
The experimental groups, each consisting of 15 mice, are:
as §2, with “Blood and bone marrow samples are taken for the first treatment schedule animals. On the days they are sacrificed, the mice” for “The mice”
as §3
as §4, with “Double readings are done on each sample, and between one sample and the next, the instrument is washed using isotonic solution, Superfrost” for “Superfrost”
as §5, with “(Shandon) is” for “(Shandon) os”
as §6
Comparison between the neutrophil granulocyte values obtained for the different groups is done using ANOVA.

[3] = system: murine cancer of the breast (L-MM3); experiment: L-MM3 tumour growth in Balb/c mice (taxol and ALC); format: in vivo, mouse
Protocol: Treatment schedule 1: the transplantable murine breast cancer cells (L-MM3) of Balb/c origin are grown at 37° C. in plastic flasks in a 5% CO2 humidified incubator in DMEM medium containing 5% heat-inactivated FCS, L-glutamine 2 mM, and gentamicin 80 μg/ml. At the time of inoculation, the cells are detached with trypsin-EDTA and re-suspended in the same medium without PBS.
Treatment schedule 2: the same experimental groups mentioned above, each consisting of 15 mice (with different cage numbers) are treated as follows in order to evaluate survival and tumour size.
ALC administration lasts 14 days (in groups 16, 17, 18) and the tumour is measured until it reaches a size of approximately 2 cm. The animals are left alive for 100 days.
The tumour size (length and width) is measured twice a week with a calliper, from the tumour is measurable. Tumour size is expressed in cm and is evaluated according to the following formula: (length×width).
Tumour sizes are compared using the non-parametric Mann Whitney test for unpaired data.

[4] = system: M109 murine lung cancer; settings: for Size of metastases / number of lung metastases (Mean ± SD): day 22 after inoculation
Protocol: The animals were kept under observation up to day 22 after inoculation of the M109 murine lung cancer cells, and were then sacrificed the lungs removed to determine the number of metastases.
Determination of the number of lung metastases: on day 22 after inoculation of M109 murine lung cancer, the study animals were sacrificed by cervical dislocation. Their lungs were then removed and kept for approximately 5-7 days in 5 ml of Bouin's solution with the following composition: 71% as saturated picric acid solution (Merck), and 24% as 10% formaldehyde (Fluka). When lung metastases were evident, their numbers were counted.
Statistical analysis of the data for tumour size and number of lung metastases was carried out using the non-parametric Mann-Whitney test for unpaired data.

[5] = system: BALB/c mice
[6] = 6 hours after last administration (Table 4)
[7] = taxol 30 mg/kg i.p. x4, ALC 100 mg/kg, sacrifice 6 hours after last taxol administration
[8] = taxol 30 mg/kg i.p. x4 on alternate days, ALC 100 mg/kg, sacrifice 6 hours after last taxol administration
[9] = taxol i.p., sacrifice 3 days after last taxol administration
[10] = three days after last administration (Table 5)
[11] = taxol i.v. 54 mg/kg/15 ml, sacrifice after 3 days' recovery from last taxol administration
[12] = taxol i.v., sacrifice 6 hours after fourth taxol administration
[13] = L-MM3-bearing mice, sacrifice 6 hours after last taxol

SMILES: CC(=O)O[C@H](CC(=O)[O-])C[N+](C)(C)C [ALC, acetyl L-carnitine]
- changes in neutrophils compared to vehicle alone or untreated animals (in words) [1, 6]: no changes
- polymorphonucleates, change under taxol with acetyl L-carnitine ([1]; acetyl L-carnitine 100 mg/kg oral (os) with taxol 30 mg/kg i.p. x4): −23%
- polymorphonucleates, change under taxol with acetyl L-carnitine ([1]; acetyl L-carnitine 100 mg/kg subcutaneous (sc) with taxol 30 mg/kg i.p. x4): 8-43%
- Absolute neutrophils [1, 7]: 708 ± /mm^3
- Lymphocytes [1, 7]: 88.7%
- Neutrophils [1, 7]: 11.2%
- WBC [1, 8]: 6452 Mm^3
- Absolute neutrophils [1, 9]: 691 ± /mm^3
- Lymphocytes [1, 9]: 89.9%
- Neutrophils [1, 9]: 10.1%
- WBC [1, 9]: 6920 Mm^3
- changes in neutrophils compared to vehicle alone or untreated animals (in words) [1, 10]: no changes
- neutrophil granulocytes ([2]; acetyl L-carnitine 100 mg/kg os once daily for 10 days combined with taxol 30 mg/kg i.p. x4): 335 /mm^3
- effect on the anticancer activity of taxol (in words) ([3]; ALC 100 mg/kg os once daily for 14 days plus taxol 30 mg/kg i.p. x4): did not affect the anticancer activity of taxol
- effect on the formation of lung metastases (in words) ([4]; ALC 100 mg/kg os): mild inhibitory effect

SMILES: CC(=O)O[C@H]1C(=O)[C@@]2(C)[C@H]([C@H](OC(=O)c3ccccc3)[C@]3(O)C[C@H](OC(=O)[C@H](O)[C@@H](NC(=O)c4ccccc4)c4ccccc4)C(C)=C1C3(C)C)[C@]1(OC(C)=O)CO[C@@H]1C[C@@H]2O [Taxol, paclitaxel, reference compound]
- neutrophil granulocytes vs vehicle ([1]; mouse, in vivo): −64%
- reduction in neutrophils ([1]; mouse, in vivo): 98%
- Absolute neutrophils ([1]; mouse, in vivo, ip): ****250 ± /mm^3
- Lymphocytes ([1]; mouse, in vivo, ip): 95.5%
- Neutrophils ([1]; mouse, in vivo, ip): 4.5%
- WBC ([1]; mouse, in vivo, ip): 5855 Mm^3
- Lymphocytes ([2]; mouse, in vivo): 98.6 ± 0.2%
- Neutrophils ([2]; mouse, in vivo): ****1.3 ± 0.2^ %
- Platelets ([2]; mouse, in vivo): 539000 ± 36057 mm^3
- L-MM3 tumour size ([3]; taxol 30 mg/kg i.p. every two days x4, when control tumours reached approximately 2 cm (control 1.8 cm)): 0.56 cm
- Absolute neutrophils [5, 11]: 330 ± /mm^3
- Lymphocytes [5, 11]: 93.0%
- Neutrophils [5, 11]: 7.0%
- Absolute neutrophils [5, 12]: 229 ± /mm^3
- Lymphocytes [5, 12]: 97.1%
- Neutrophils [5, 12]: ****2.9%
- Size of metastases [4]: S (S = Small (<1 mm diam))
- number of lung metastases (Mean ± SD) [4]: **9 ± 7.3

SMILES: CC(=O)O[C@H](CC(=O)[O-])C[N+](C)(C)C [Vehicle + ALC, acetyl L-carnitine]
- changes in neutrophils compared to vehicle alone or untreated animals (in words) [1, 6]: no changes
- Absolute neutrophils [1, 7]: 511 ± /mm^3
- Lymphocytes [1, 7]: 91.5%
- Neutrophils [1, 7]: 8.5%
- WBC [1, 8]: 5950 Mm^3
- Absolute neutrophils [1, 9]: 625 ± /mm^3
- Lymphocytes [1, 9]: 89.2%
- Neutrophils [1, 9]: 10.7%
- WBC [1, 9]: 6067 Mm^3
- changes in neutrophils compared to vehicle alone or untreated animals (in words) [1, 10]: no changes
- Absolute neutrophils [2, 13]: ***607 ± 68 ^ /mm^3
- Lymphocytes [2, 13]: 87.6 ± 0.9%
- Neutrophils [2, 13]: 12.3 ± 0.9%
- Platelets [2, 13]: 433000 ± 45731 mm^3
- WBC ([2]; L-MM3-bearing mice, taxol 30 mg/kg i.p. x4, ALC 100 mg/kg os 10 days, sacrifice 6 hours after last taxol): 4950 ± 385 Mm^3
- Size of metastases [4]: M, S
- number of lung metastases (Mean ± SD) [4]: **77 ± 13.2
